Experimental findings from PubChem BioAssay (NCI) are described below.

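Test compounds were applied to cells in 96-well plates for 48 hours at 5 doses. TGI marks complete inhibition of growth.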

Among the test systems are SF-295 CNS; HT29 colon; MDA-MB-231 breast; KM12 colon; UACC-62 melanoma; HOP-62 NSCLC; EKVX NSCLC; CCRF-CEM leukemia; SNB-19 CNS; NCI-H226 lung.
Assay in all cases: inhibition of tumour cell growth, NCI panel, 48 h

Take `COc1cc(C=Nc2ccc(Oc3ccc(Cl)cc3)c(Cl)c2)cc(OC)c1OC`: the TGI was 37.3 µM in the test on SF-295 CNS; 44 µM in the test with HT29 colon; 35 µM in the test on MDA-MB-231 breast; 38.1 µM with KM12 colon; 30.4 µM with UACC-62 melanoma; 49 µM in the test on HOP-62 NSCLC. For the same compound, the TGI in the test with EKVX NSCLC was determined as 48.1 µM; in the test with CCRF-CEM leukemia it was 66.4 µM; in the test on SNB-19 CNS, 49.1 µM; in the test with NCI-H226 lung, 80.9 µM.
Take `CC(C)(C)OC(=O)N1CC(COS(C)(=O)=O)c2ccc(O)cc21` (stereo not given): the TGI in the test with SF-295 CNS came to 10.8 µM; with HT29 colon, 10.6 µM; in the test with MDA-MB-231 breast, 8.41 µM; with KM12 colon it was 7.16 µM; with UACC-62 melanoma it was 3.2 µM; in the test on HOP-62 NSCLC, 8.05 µM. Also, the TGI with EKVX NSCLC is 4.59 µM; in the test on CCRF-CEM leukemia, 3.06 µM; in the test with SNB-19 CNS it was 8.95 µM; in the test on NCI-H226 lung, 4.67 µM.
On to `O=C1c2c(ccc3c2CCCC3)CC12Cc1ccccc1C2`, for which the TGI with SF-295 CNS was > 100 µM; in the test with HT29 colon, > 57.1 µM; in the test on MDA-MB-231 breast, 52.7 µM; with KM12 colon, 59.9 µM; with UACC-62 melanoma, > 100 µM; in the test on HOP-62 NSCLC, > 100 µM. The TGI with EKVX NSCLC was > 95.9 µM; with CCRF-CEM leukemia it was 27 µM; in the test with SNB-19 CNS, > 100 µM; with NCI-H226 lung it was 71.7 µM.
On to `CC(C)Oc1c(O)c2c3c(oc(=O)n3C=CC2c2ccccc2F)c1OC(C)C` (stereo not given), for which the TGI is 78.1 µM in the test on SF-295 CNS; 54.1 µM in the test with HT29 colon; > 100 µM in the test on MDA-MB-231 breast; > 100 µM in the test with KM12 colon; > 100 µM with UACC-62 melanoma; > 100 µM in the test with HOP-62 NSCLC. The TGI is > 100 µM with EKVX NSCLC, 97.6 µM in the test on CCRF-CEM leukemia, > 100 µM in the test on SNB-19 CNS and > 100 µM with NCI-H226 lung.
As for `COCN1C(=O)[C@@H]2C[C@@H](OC/C=C/CBr)CN2C(=O)c2ccccc21`, the TGI turned out to be 46.5 µM in the test on SF-295 CNS; 82.1 µM with HT29 colon; 55.1 µM in the test with MDA-MB-231 breast; 63.5 µM in the test with KM12 colon; 71.5 µM in the test with UACC-62 melanoma; 54.6 µM with HOP-62 NSCLC. Further, the TGI with EKVX NSCLC is 50.4 µM; in the test with CCRF-CEM leukemia it was > 100 µM; in the test on SNB-19 CNS, 67.2 µM; in the test with NCI-H226 lung, 29.9 µM.
For `O=C(C(Cl)=C(Nc1ccccc1)Nc1ccccc1)C(Cl)Cl`, the TGI is > 100 µM in the test on SF-295 CNS; 48.1 µM in the test on HT29 colon; 91.2 µM in the test with MDA-MB-231 breast; > 100 µM in the test on KM12 colon; 54.1 µM in the test on UACC-62 melanoma; 69.7 µM in the test on HOP-62 NSCLC. The TGI amounted to 70.2 µM with EKVX NSCLC, 77.6 µM with CCRF-CEM leukemia, 71.3 µM with SNB-19 CNS and 93.6 µM in the test on NCI-H226 lung.
With `CN(C)/C=C/c1ccnc2c1C(=O)c1ccccc1C2=O`, the TGI is 14.3 µM with SF-295 CNS; 37.9 µM in the test on HT29 colon; > 89 µM in the test on MDA-MB-231 breast; > 64.2 µM in the test with KM12 colon; 2.9 µM in the test with UACC-62 melanoma; 62.6 µM with HOP-62 NSCLC. Further, the TGI was 44.3 µM with EKVX NSCLC, > 56 µM with CCRF-CEM leukemia, 25.6 µM with SNB-19 CNS and > 52.7 µM with NCI-H226 lung.
Regarding `COC(=O)[C@H]1ON2O[C@H](OC3CCCC[C@@H]3c3ccccc3)C[C@@H]3CC[C@H]1[C@@]32C` (stereo not given in full), the TGI with SF-295 CNS, in the test on HT29 colon, with MDA-MB-231 breast, in the test with KM12 colon, in the test with UACC-62 melanoma and in the test on HOP-62 NSCLC was > 100 µM each time. Further, the TGI with EKVX NSCLC, with CCRF-CEM leukemia, with SNB-19 CNS and with NCI-H226 lung was > 100 µM in each case.
For the compound `CN(C)CCCN1c2ccc3ccccc3c2Sc2cccc(Cl)c21`, the TGI with SF-295 CNS is 12.4 µM; with HT29 colon, 4.56 µM; with MDA-MB-231 breast it was 8.07 µM; in the test with KM12 colon, 4.28 µM; in the test with UACC-62 melanoma it was 4.82 µM; in the test with HOP-62 NSCLC, 9.32 µM. Further, the TGI in the test on EKVX NSCLC worked out at 13.5 µM; with CCRF-CEM leukemia, 3.52 µM; in the test with SNB-19 CNS, 22.7 µM; in the test on NCI-H226 lung, 18.7 µM.
As for `C=C(Cl)C(Cl)(CBr)CCC(Cl)C(C)C` (stereo not given), the TGI with SF-295 CNS is 6.48 µM; with HT29 colon it was 0.955 µM; with MDA-MB-231 breast, 9.99 µM; with KM12 colon, 6.11 µM; in the test on UACC-62 melanoma, 14 µM; in the test on HOP-62 NSCLC, 2.94 µM. In addition, the TGI in the test on EKVX NSCLC was 27.9 µM; with CCRF-CEM leukemia, > 100 µM; in the test with SNB-19 CNS, 14.2 µM; in the test on NCI-H226 lung, > 65.5 µM.
As to `O=C1N[C@@H](c2c[nH]c3ccc(Br)cc23)C(=O)N[C@H]1c1c[nH]c2ccc(Br)cc12`, the TGI in the test on SF-295 CNS is 25.2 µM; in the test with HT29 colon, 20.2 µM; in the test with MDA-MB-231 breast, 26.3 µM; in the test with KM12 colon, 18.6 µM; in the test with UACC-62 melanoma it was 23.2 µM; in the test with HOP-62 NSCLC, 27 µM. For the same compound, the TGI in the test with EKVX NSCLC was 29.7 µM; with CCRF-CEM leukemia, 24 µM; with SNB-19 CNS, 49.2 µM; in the test with NCI-H226 lung, 26.9 µM.
Regarding `COc1c(-c2ccc3c(c2)OCO3)oc2cc3c(c(OC)c2c1=O)OCO3`, the TGI was 61.8 µM in the test on SF-295 CNS; > 100 µM in the test with HT29 colon; > 100 µM with MDA-MB-231 breast; 65.1 µM in the test on KM12 colon; 64.1 µM with UACC-62 melanoma; 34.9 µM in the test with HOP-62 NSCLC. For the same compound, the TGI with EKVX NSCLC is 57.1 µM; in the test on CCRF-CEM leukemia, > 100 µM; in the test on SNB-19 CNS, 43.4 µM; in the test on NCI-H226 lung, 42.5 µM.
